The record followed here is the supplement of paper PMC11368000.

Structures are written as SMILES.

The first test relates to 1516 (donor line of iPSC-derived cardiomyocytes). The experiment in a line: POD (EC95) for loss of peak frequency (asystole) vs vehicle; higher = less potent (higher point of departure). The note with it: exposure time: 90 min. The procedure:
(§1)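 Human iPSC-derived cardiomyocytes from 16 donors were exposed for 90 min at 37 °C to each PFAS at 0.1, 1, 10 and 100 µM in 0.5% DMSO, 384-well plates. Kinetic Ca2+ flux (FLIPR) and Hoechst nuclei counts were normalised to vehicle wells and fitted with a hierarchical Bayesian Hill model to give donor-specific PODs: EC05 for beat-rate increase or decrease and for decay-to-rise ratio increase (QT proxy), EC95 for peak-frequency loss (asystole), EC10 for total cell number loss. 0.03 µM is the lower bound.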
`NC(=O)C(F)(F)C(F)(F)C(F)(F)C(F)(F)C(F)(F)C(F)(F)C(F)(F)F` [Perfluorooctanamide] displayed a POD vs vehicle of more than 100 µM.

As for `N=C(N)C(F)(F)C(F)(F)C(F)(F)C(F)(F)C(F)(F)C(F)(F)C(F)(F)F` [Perfluorooctanamidine], the POD vs vehicle is more than 100 µM.

`O=S(=O)(O)C(F)(F)C(F)(F)C(F)(F)C(F)(F)C(F)(F)C(F)(F)C(F)(F)C(F)(F)F` [Perfluorooctanesulfonic_acid] gave a POD vs vehicle of more than 100 µM.

In turn, `O=C(O)C(F)(F)C(F)(F)C(F)(F)C(F)(F)C(F)(F)C(F)(F)C(F)(F)F` [Perfluorooctanoic_acid] yielded a POD vs vehicle of more than 100 µM.

In turn, `O=C(O)C(F)(F)C(F)(F)C(F)(F)C(F)(F)F` [Perfluoropentanoic_acid] came in with a POD vs vehicle of more than 100 µM.

In turn, `O=C(O)C(F)(F)C(F)(F)F` [Perfluoropropanoic_acid] displayed a POD vs vehicle of more than 100 µM.

Compound `O=C(O)C(F)(F)C(F)(F)C(F)(F)C(F)(F)C(F)(F)C(F)(F)C(F)(F)C(F)(F)C(F)(F)C(F)(F)F` [Perfluoroundecanoic_acid] displayed a POD vs vehicle of more than 100 µM.

`O=S(=O)([O-])C(F)(F)C(F)(F)C(F)(F)C(F)(F)F.[K+]` [Potassium_perfluorobutanesulfonate]: the POD vs vehicle was more than 100 µM.

Another test deals with 1392 (donor line of iPSC-derived cardiomyocytes). The test is described as above. The conditions noted are these: exposure time: 90 min. As to the method:
as §1
Take `O=C(O)C(F)(F)C(F)(F)C(F)(F)F` [Perfluorobutanoic_acid]: the POD vs vehicle was more than 100 µM.

With `O=C(O)C(F)(F)C(F)(F)C(F)(F)C(F)(F)C(F)(F)C(F)(F)C(F)(F)C(F)(F)C(F)(F)F` [Perfluorodecanoic_acid], the POD vs vehicle was more than 100 µM.

For `O=C(O)C(F)(F)C(F)(F)C(F)(F)C(F)(F)C(F)(F)C(F)(F)F` [Perfluoroheptanoic_acid], the POD vs vehicle was more than 100 µM.

As for `NS(=O)(=O)C(F)(F)C(F)(F)C(F)(F)C(F)(F)C(F)(F)C(F)(F)F` [Perfluorohexanesulfonamide], the POD vs vehicle was more than 100 µM.

In turn, `O=S(=O)(O)C(F)(F)C(F)(F)C(F)(F)C(F)(F)C(F)(F)C(F)(F)F` [Perfluorohexanesulfonic_acid] registered a POD vs vehicle of more than 100 µM.

For the compound `O=C(O)C(F)(F)C(F)(F)C(F)(F)C(F)(F)C(F)(F)F` [Perfluorohexanoic_acid], the POD vs vehicle is more than 100 µM.

In turn, `O=C(O)C(F)(F)C(F)(F)C(F)(F)C(F)(F)C(F)(F)C(F)(F)C(F)(F)C(F)(F)F` [Perfluorononanoic_acid] had a POD vs vehicle of more than 100 µM.

For `NC(=O)C(F)(F)C(F)(F)C(F)(F)C(F)(F)C(F)(F)C(F)(F)C(F)(F)F` [Perfluorooctanamide], the POD vs vehicle was more than 100 µM.

The compound `N=C(N)C(F)(F)C(F)(F)C(F)(F)C(F)(F)C(F)(F)C(F)(F)C(F)(F)F` [Perfluorooctanamidine] had a POD vs vehicle of more than 100 µM.

The compound `O=S(=O)(O)C(F)(F)C(F)(F)C(F)(F)C(F)(F)C(F)(F)C(F)(F)C(F)(F)C(F)(F)F` [Perfluorooctanesulfonic_acid] returned a POD vs vehicle of more than 100 µM.

Compound `O=C(O)C(F)(F)C(F)(F)C(F)(F)C(F)(F)C(F)(F)C(F)(F)C(F)(F)F` [Perfluorooctanoic_acid] displayed a POD vs vehicle of more than 100 µM.

In turn, `O=C(O)C(F)(F)C(F)(F)C(F)(F)C(F)(F)F` [Perfluoropentanoic_acid] came in with a POD vs vehicle of more than 100 µM.

`O=C(O)C(F)(F)C(F)(F)F` [Perfluoropropanoic_acid] registered a POD vs vehicle of more than 100 µM.

`O=C(O)C(F)(F)C(F)(F)C(F)(F)C(F)(F)C(F)(F)C(F)(F)C(F)(F)C(F)(F)C(F)(F)C(F)(F)F` [Perfluoroundecanoic_acid] displayed a POD vs vehicle of more than 100 µM.

The compound `O=S(=O)([O-])C(F)(F)C(F)(F)C(F)(F)C(F)(F)F.[K+]` [Potassium_perfluorobutanesulfonate] returned a POD vs vehicle of more than 100 µM.

The next test concerns 1565 (donor line of iPSC-derived cardiomyocytes). Described as above. The conditions noted are these: exposure time: 90 min. As to the method:
as §1
On to `O=C(O)C(F)(F)C(F)(F)C(F)(F)F` [Perfluorobutanoic_acid], for which the POD vs vehicle was more than 100 µM.

Compound `O=C(O)C(F)(F)C(F)(F)C(F)(F)C(F)(F)C(F)(F)C(F)(F)C(F)(F)C(F)(F)C(F)(F)F` [Perfluorodecanoic_acid] returned a POD vs vehicle of more than 100 µM.

`O=C(O)C(F)(F)C(F)(F)C(F)(F)C(F)(F)C(F)(F)C(F)(F)F` [Perfluoroheptanoic_acid] showed a POD vs vehicle of more than 100 µM.

With `NS(=O)(=O)C(F)(F)C(F)(F)C(F)(F)C(F)(F)C(F)(F)C(F)(F)F` [Perfluorohexanesulfonamide], the POD vs vehicle was more than 100 µM.

Turning to `O=S(=O)(O)C(F)(F)C(F)(F)C(F)(F)C(F)(F)C(F)(F)C(F)(F)F` [Perfluorohexanesulfonic_acid], the POD vs vehicle is more than 100 µM.

Compound `O=C(O)C(F)(F)C(F)(F)C(F)(F)C(F)(F)C(F)(F)F` [Perfluorohexanoic_acid] came in with a POD vs vehicle of more than 100 µM.

`O=C(O)C(F)(F)C(F)(F)C(F)(F)C(F)(F)C(F)(F)C(F)(F)C(F)(F)C(F)(F)F` [Perfluorononanoic_acid]: the POD vs vehicle was more than 100 µM.

With `NC(=O)C(F)(F)C(F)(F)C(F)(F)C(F)(F)C(F)(F)C(F)(F)C(F)(F)F` [Perfluorooctanamide], the POD vs vehicle was more than 100 µM.

`N=C(N)C(F)(F)C(F)(F)C(F)(F)C(F)(F)C(F)(F)C(F)(F)C(F)(F)F` [Perfluorooctanamidine] registered a POD vs vehicle of more than 100 µM.

With `O=S(=O)(O)C(F)(F)C(F)(F)C(F)(F)C(F)(F)C(F)(F)C(F)(F)C(F)(F)C(F)(F)F` [Perfluorooctanesulfonic_acid], the POD vs vehicle was more than 100 µM.

As to `O=C(O)C(F)(F)C(F)(F)C(F)(F)C(F)(F)C(F)(F)C(F)(F)C(F)(F)F` [Perfluorooctanoic_acid], the POD vs vehicle is more than 100 µM.

`O=C(O)C(F)(F)C(F)(F)C(F)(F)C(F)(F)F` [Perfluoropentanoic_acid] returned a POD vs vehicle of more than 100 µM.

On to `O=C(O)C(F)(F)C(F)(F)F` [Perfluoropropanoic_acid], for which the POD vs vehicle is more than 100 µM.

With `O=C(O)C(F)(F)C(F)(F)C(F)(F)C(F)(F)C(F)(F)C(F)(F)C(F)(F)C(F)(F)C(F)(F)C(F)(F)F` [Perfluoroundecanoic_acid], the POD vs vehicle was more than 100 µM.

In turn, `O=S(=O)([O-])C(F)(F)C(F)(F)C(F)(F)C(F)(F)F.[K+]` [Potassium_perfluorobutanesulfonate] registered a POD vs vehicle of more than 100 µM.
